{"source": "patent EP4151214A1", "about": "“RIMEGEPANT FOR TREATMENT OF HUMAN CORONAVIRUS INFECTION” (priority 2021, dated 2023)", "key": {"[1]": {"settings": "cited from earlier work"}, "[2]": {"molecular_target": "nsp14-nsp10 protein complex (Severe acute respiratory syndrome coronavirus 2, UniProt P0DTD1)", "test": "nsp14 ExoN activity assay with nsp14-nsp10 complex (gel-based, 32P-labelled H4 RNA)", "assay_type": "biochemical, SARS-CoV-2", "procedure": "(§1) Both RNAs were labelled at their 5' end with [^32P]-γ-ATP and T4 Polynucleotide Kinase (Ambion) in a standard reaction. MicroSpin G-50 columns (Cytiva) were used to remove excess [^32P]-γ-ATP. The synthetic RNAs were resuspended in 10 mM of Tris-HCI pH 8.0 and incubated 10 min at 80°C followed by 45 min at 37°C. • Different concentrations (µM) of rimegepant were incubated with 300 nM of nsp15 or with 40 nM-160 nM of nsp14-nsp10 proteins (7 minutes at room temperature), before initiating the in vitro assay through the addition of the P^32-RNA substrate (50 nM). The activity assays were performed in a final volume of 12 µl containing the activity buffer 50 mM HEPES pH 7.4, 1 mM DTT, 5 mM MgCl2 in case of nsp14-nsp10 complex, and 25 mM HEPES pH 7.4, 50 mM NaCl, 1 mM DTT, 10 mM NaHPO4, 5 mM MnCl2 for nsp15. The reactions were incubated at 37°C, and then aliquots of 4 µl were withdrawn at the time-points indicated in the respective images. […] All the experiments were performed at least in triplicate. • Inhibition profile curves were calculated by quantification of gel-based RNase assays. […] The inhibitory effect of rimegepant on SARS-CoV-2 multiplication in Vero E6 cells was evaluated. […] In addition, the viability of cells in culture was assessed by measuring intracellular ATP levels, using a luminescent assay as described above (CellTiter-Glo® Luminescent Cell Viability Assay). […]"}, "CGRP receptor": {"molecular_target": "T1, CGRP receptor (Homo sapiens, UniProt O60894+Q16602)", "T1 construct": "host or cells: human patients (clinical use)", "T1 sequence (Q16602 23-461)": "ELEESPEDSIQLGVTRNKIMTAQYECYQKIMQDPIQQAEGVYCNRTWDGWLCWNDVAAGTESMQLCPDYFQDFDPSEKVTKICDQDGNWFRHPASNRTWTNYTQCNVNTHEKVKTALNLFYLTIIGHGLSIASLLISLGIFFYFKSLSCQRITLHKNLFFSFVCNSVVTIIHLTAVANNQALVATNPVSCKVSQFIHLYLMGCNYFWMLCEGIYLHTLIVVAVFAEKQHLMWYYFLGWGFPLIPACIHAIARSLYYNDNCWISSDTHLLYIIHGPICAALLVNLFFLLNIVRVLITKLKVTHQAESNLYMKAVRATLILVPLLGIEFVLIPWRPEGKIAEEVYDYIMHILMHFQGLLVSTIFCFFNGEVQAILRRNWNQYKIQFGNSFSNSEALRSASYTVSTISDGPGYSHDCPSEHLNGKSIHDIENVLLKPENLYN", "T1 sequence (O60894 27-148)": "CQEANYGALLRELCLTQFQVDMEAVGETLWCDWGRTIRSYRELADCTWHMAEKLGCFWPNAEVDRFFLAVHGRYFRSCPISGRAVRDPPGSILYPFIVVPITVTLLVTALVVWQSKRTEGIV", "settings": "orally disintegrating tablet; cited from earlier work"}, "SARS-CoV-2": {"test_system": "SARS-CoV-2", "assay_type": "cell-based"}, "SARS-CoV-2 nsp15": {"molecular_target": "SARS-CoV-2 nsp15 (Severe acute respiratory syndrome coronavirus 2, UniProt P0DTD1)", "test": "nsp15 endoribonuclease activity assay (gel-based, 32P-labelled 16-mer RNA)", "assay_type": "biochemical", "procedure": "as §1"}, "[3]": {"settings": "cited from earlier work", "remark": "listed apart in the source"}}, "data": [{"smiles": "N[C@@H]1c2cccnc2[C@H](OC(=O)N2CCC(n3c(=O)[nH]c4ncccc43)CC2)CC[C@H]1c1cccc(F)c1F", "note": "[rimegepant, Rimegepant]", "values": [{"measurement": "plasma concentrations achieved relative to those at 75 mg", "setting": "[1]; Phase I, without finding a maximum tolerated dose", "value": 50, "unit": "times"}, {"measurement": "administered dose eliminated unchanged", "setting": "[1]; in vivo", "value": "Approximately 77%"}, {"measurement": "bioavailability", "setting": "[1]; in vivo", "value": 64, "unit": "%"}, {"measurement": "elimination half-life", "setting": "[1]; in vivo", "value": "approximately 11 h"}, {"measurement": "major metabolites (i.e., > 10%) in plasma", "setting": "[1]; in vivo", "value": "no major metabolites"}, {"measurement": "Cmax (maximum serum concentrations)", "setting": "[1]; near the low predicted therapeutic dose of 75 mg, Phase I", "value": 784, "unit": "ng/mL"}, {"measurement": "Tmax (maximum plasma concentrations achieved at)", "setting": "[1]; oral administration of the orally disintegrating tablet", "value": 1.5, "unit": "h"}, {"measurement": "IC50", "setting": "[2]", "value": 1700, "unit": "µM"}, {"measurement": "duration of effect after a single dose", "setting": "CGRP receptor", "value": "up to 48 h"}, {"measurement": "duration of antiviral effect", "setting": "SARS-CoV-2; 175 µM of rimegepant", "value": 72, "unit": "h"}, {"measurement": "rescue of Vero E6 cells infected with SARS-CoV-2", "setting": "SARS-CoV-2; 175 µM, ATP levels", "value": "totally rescue the cells from the infection"}, {"measurement": "IC50", "setting": "SARS-CoV-2 nsp15", "value": "98.95 ± 0.28", "unit": "µM"}, {"measurement": "maximum tolerated dose (MTD)", "setting": "[3]; Phase I clinical trials", "value": "not found"}, {"measurement": "well tolerated multiple doses", "setting": "[3]; for 14 days, without significant adverse events (Tong et al 2013)", "value": "up to 600 mg"}, {"measurement": "well tolerated single doses", "setting": "[3]; healthy subjects, compared to placebo (Tong et al 2013)", "value": "up to 1500 mg"}]}]}
